# Measurements from patent US20150133527A1, “REGULATION OF CARDIAC SODIUM CHANNELS BY SIRT1 AND SIRT1 ACTIVATORS” (University of Pittsburgh - Of the Commonwealth System of …, priority 2012, published 2015).
# Columns and labels:
# native Nav1.5 (INa) = test: Whole cell patch clamp of INa in rat neonatal cardiac myocytes; type: cell-based; details: 5 μM
# native Nav1.5 = test: Lysine acetylation of native Nav1.5 in rat neonatal cardiomyocytes (Western blot); type: cell-based
# Protocol: FIGS. 9A-9C are a graph and a set of Western blots showing that inhibition of endogenous SIRT1 increases lysine acetylation of native Nav1.5 in rat neonatal cardiomyocytes.
# (§1) How SIRT1 acts to increase Nav1.5 membrane localization and INa was addressed. Because SIRT1 is a lysine deacetylase, it was hypothesized that it changes the acetylation status of lysine residues in Nav1.5. To test this hypothesis, whether the two proteins bind to each other was tested. […] In addition, endogenous SIRT1 co-precipitated with endogenous Nav1.5 in NRCMs and in mouse hearts (FIG. 7B). Next, if Nav1.5 is acetylated on lysine residues was determined. In HEK 293 cells expressing the full-length channel, Nav1.5 was robustly acetylated on lysine residues, and overexpression or stimulation (with resveratrol) of SIRT1 decreased, while inhibition of SIRT1 with NAM increased, this acetylation (FIG. 8).
# Nav1.5 (III-IV) = test: Lysine acetylation of GST-tagged Nav1.5 (III-IV) expressed in HEK 293 cells; type: cell-based; details: GST-tagged loop III-IV construct in HEK 293 cells
# Excerpt: GST-tagged Nav1.5 (III-IV) was expressed in HEK 293 cells. Cells were co-transfected with wild-type SIRT1 or treated with NAM or resveratrol. Nav1.5 (III-IV) was pulled down with GST-agarose, and immunoblotted (IB) with GST and acety-lysine antibodies.
# Because Nav1.5 has 84 lysine residues, the number of putative lysine targets of SIRT1 was narrowed down by excluding the extra-cellular and membrane-spanning domains. Attention was initially focused on one intracellular region (termed loop III-IV) which is rich in lysine residues (12 lysines), based on by prior reports showing that lysines in this region are important for channel function (Grant et al., J. Clinic. Invest. 110, 1201-1209, 2002). Using a GST-tagged construct encoding the 61 amino acids in loop III-IV expressed in HEK 293 cells, if lysine acetylation of this region of Nav1.5 is regulated by SIRT1 was examined.
# GST-Nav1.5 (III-IV) = test: Ubiquitination of GST-Nav1.5 (III-IV) in HEK 293 cells; type: cell-based
# full-length Nav1.5 = test: Lysine acetylation of full-length Nav1.5 expressed in HEK 293 cells (acetyl-lysine IP / immunoblot); type: cell-based; details: HEK 293 cells expressing the full-length channel
# Excerpt: FIGS. 8A and 8B show a series of Western blot images illustrating that wild-type SIRT1 deacetylates full-length Nav1.5. (8A) GFP-tagged full-length Nav1.5 was expressed in HEK 293 cells, with and without myc-tagged wild-type SIRT1, and immunoprecipitated (IP). IPs were immunoblotted (IB) with GFP and myc. (8B) Nav1.5 was expressed in HEK 293 cells. Cells were co-transfected with SIRT or treated with resveratrol or NAM. Acetyl-lysine IPs were immunoblotted for Nav1.5
# as §1
# QRS amplitude on ECGs = type: in vivo; details: suggestive of increased sodium currents
# Excerpt: It is disclosed herein that SIRT1 can deacetylate Nav1.5, that Nav1.5 and SIRT1 co-immunoprecipitate, that over-expression of SIRT1 increases INa currents and that dominant negative suppression of SIRT1 or use of SIRT1 inhibitors decreases INa currents, that SIRT1 increases membrane expression of Nav1.5 and dominant negative SIRT1 decreases membrane expression of Nav1.5, that SIRT1 targets lysine 1479 in Nav1.5, that SIRT1 increases INa and dominant negative SIRT1 decreases INa by targeting lysine 1479 in Nav1.5, and that SIRT1 increases membrane expression of Nav1.5 by targeting lysine 1479 in Nav1.5. In addition there is prolongation of the PR interval, intermittent high-grade atrioventricular block on ECGs and telemetry of cardiomyocyte-specific SIRT1 knockout mice compared to wild type control mice, and decreased conduction velocity of the electrical impulse in hearts of cardiomyocyte-specific SIRT1 knockout mice compared to wild type control mice.
# [1] = test system: GFP-tagged full-length Nav1.5; test: Ubiquitination of GFP-tagged full-length Nav1.5 in HEK 293 cells; type: cell-based; details: resveratrol 100 μM, 4 hrs
# Protocol: FIGS. 13A and 13B are a set of Western blots showing that SIRT1 de-ubiquitinates Nav1.5. (A) HEK 293 cells were transfected with full-length GFP-tagged Nav1.5 and HA-ubiquitin. Cells were treated with resveratrol (100 μM, 4 hrs). Nav1.5 was immunoprecipitated (IP) with GFP and immunoblotted with GFP and HA. (B) HEK 293 cells were transfected with GST-tagged Nav1.5 (III-IV) and HA-ubiquitin. Cells were treated with NAM or co-transfected with SIRT1. Nav1.5 (III-IV) was pulled down with GST-agarose and immunoblotted (IB) with HA.
# Poly-ubiquitination of Nav1.5 inhibits its membrane localization (Van Bemmelen et al., Circ. Res. 95, 284-291, 2004). SIRT1 regulates ubiquitination of some of its targets, in some cases decreasing ubiquitination (Van Bemmelen et al., Circ. Res. 95, 284-291, 2004). Because SIRT1 increases membrane expression of Nav1.5, whether SIRT1 decreases ubiquitination of the channel was tested. First, the effect of the SIRT1 activator resveratrol on ubiquitination of Nav1.5 was determined. In HEK 293 cells GFP-tagged full-length Nav1.5 was robustly poly-ubiquitinated (FIG. 13A). […] Using GST-Nav1.5 (III-IV) the effect of SIRT1 on ubiquitination of this intracellular region of Nav1.5 was also examined. Similar to full-length Nav1.5, GST-Nav1.5 (III-IV) was also poly-ubiquitinated (FIG. 13B). […]
Compound,effect on INa (native Nav1.5 (INa); compared to inactive isomer Ex-242),"effect on INa (native Nav1.5 (INa); compared to inactive isomer Ex-242, listed as ex-243)",lysine acetylation of native Nav1.5 (native Nav1.5),acetylation of Nav1.5 (III-IV) (Nav1.5 (III-IV)),poly-ubiquitination of GST-Nav1.5 (III-IV) (GST-Nav1.5 (III-IV)),lysine acetylation of full-length Nav1.5 (full-length Nav1.5),QRS amplitude on ECGs (QRS amplitude on ECGs),poly-ubiquitination of full-length Nav1.5 [1]
NC(=O)[C@H]1CCCc2c1[nH]c1ccc(Cl)cc21 [Ex-243],significantly decreased,decreases,increases,–,–,–,–,–
"NC(=O)c1cccnc1 [NAM, nicotinamide]",–,–,–,increased,increased,increased,–,–
Oc1ccc(C=Cc2cc(O)cc(O)c2)cc1 [resveratrol],–,–,–,decreased,–,decreased,increased,significantly decreased
